Reference: ChEMBL document CHEMBL5244218, “Quinolone derivatives and their activities against methicillin-resistant Staphylococcus aureus (MRSA)” (Eur J Med Chem, 2018)
In brackets after ≈: the same amount, converted by molar mass.

Test system: Staphylococcus aureus
Assay: Antimicrobial activity against methicillin-resistant Staphylococcus aureus incubated for 18 hrs by Agar dilution method
Assay type: functional

Row | SMILES | MIC [µg/mL]
1 | Nc1[nH]nc2c1CN(c1nc3c(cc1F)c(=O)c(C(=O)O)cn3C1CC1)C2 | 0.125 (≈ 0.338 µM)
2 | COc1c(N2C[C@@H]3CCCN[C@@H]3C2)c(F)cc2c(=O)c(C(=O)O)cn(C3CC3)c12 [MOXIFLOXACIN] | 0.06 (≈ 0.149 µM)
3 | Nc1[nH]nc2c1CN(c1nc3c(cc1F)c(=O)c(C(=O)O)cn3-c1ccc(F)cc1F)C2 | 0.125 (≈ 0.283 µM)
4 | CO/N=C1\CN(c2nc3c(cc2F)c(=O)c(C(=O)O)cn3C2CC2)CC1CN (stereo not drawn) [GEMIFLOXACIN] | 0.06 (≈ 0.154 µM)
5 | Cn1nc2c(c1N)CN(c1c(F)cc3c(=O)c(C(=O)O)cn(C4CC4)c3c1C(=O)C(F)F)C2 | 0.125 (≈ 0.271 µM)
6 | Cn1nc2c(c1N)CN(c1c(F)cc3c(=O)c(C(=O)O)cn(C4CC4)c3c1F)C2 | 0.125 (≈ 0.311 µM)
7 | Cn1nc2c(c1N)CN(c1nc3c(cc1F)c(=O)c(C(=O)O)cn3-c1ccc(F)cc1F)C2 | 0.125 (≈ 0.274 µM)
8 | Cn1nc2c(c1N)CN(c1c(F)cc3c(=O)c(C(=O)O)cn(CCF)c3c1F)C2 | 0.125 (≈ 0.307 µM)
9 | Nc1[nH]nc2c1CN(c1c(F)cc3c(=O)c(C(=O)O)cn(C4CC4)c3c1F)C2 | 0.125 (≈ 0.323 µM)
10 | Cn1nc2c(c1N)CN(c1nc3c(cc1F)c(=O)c(C(=O)O)cn3C1CC1)C2 | 0.125 (≈ 0.325 µM)
11 | CC(=O)c1c(N2Cc3nn(C)c(N)c3C2)c(F)cc2c(=O)c(C(=O)O)cn(C3CC3)c12 | 0.125 (≈ 0.294 µM)
12 | Nc1[nH]nc2c1CN(c1c(F)cc3c(=O)c(C(=O)O)cn(CCF)c3c1F)C2 | 0.125 (≈ 0.318 µM)
13 | COc1c(N2CCNC(C)C2)c(F)cc2c(=O)c(C(=O)O)cn(C3CC3)c12 (stereo not drawn) [GATIFLOXACIN] | 0.06 (≈ 0.16 µM)
14 | CC(=O)c1c(N2Cc3n[nH]c(N)c3C2)c(F)cc2c(=O)c(C(=O)O)cn(C3CC3)c12 | 0.125 (≈ 0.304 µM)
15 | CCn1cc(C(=O)O)c(=O)c2cc(F)c(N3Cc4n[nH]c(N)c4C3)c(F)c21 | 0.125 (≈ 0.333 µM)
16 | CCn1cc(C(=O)O)c(=O)c2cc(F)c(N3Cc4nn(C)c(N)c4C3)c(F)c21 | 0.125 (≈ 0.321 µM)
17 | C[C@H]1COc2c(N3CCN(C)CC3)c(F)cc3c(=O)c(C(=O)O)cn1c23.C[C@H]1COc2c(N3CCN(C)CC3)c(F)cc3c(=O)c(C(=O)O)cn1c23.O [LEVOFLOXACIN] | 0.06
18 | Nc1[nH]nc2c1CN(c1c(F)cc3c(=O)c(C(=O)O)cn(C4CC4)c3c1C(=O)C(F)F)C2 | 0.125 (≈ 0.279 µM)

Test system: Staphylococcus aureus
Assay: Antibacterial activity against methicillin-resistant Staphylococcus aureus
Assay type: functional

Row | SMILES | MIC [µg/mL]
19 | COc1c(N2CCOCC2)c(F)cc2c(=O)c(C(=O)Nc3nccs3)cn(C3CC3)c12 | > 201
20 | COc1c(N2CCCC2)c(F)cc2c(=O)c(C(=O)Nc3nccs3)cn(C3CC3)c12 | > 201
21 | COc1c(N2CCCCC2)c(F)cc2c(=O)c(C(=O)Nc3nccs3)cn(C3CC3)c12 | > 201
22 | COc1c(-n2cc3ccccc3c2)c(F)cc2c(=O)c(C(=O)Nc3nccs3)cn(C3CC3)c12 | > 201

Test system: Staphylococcus aureus
Assay: Bactericidal activity against methicillin-resistant Staphylococcus aureus assessed as inhibition of microbial growth
Assay type: functional

Row | SMILES | MBC [µg/mL]
23 | COc1ccc(C(=O)N2CCN(C(=O)N3CCN(c4ccc5c(=O)c(C(=O)O)cn(C6CC6)c5c4)CC3)CC2)cc1OC | ≥ 128
24 | COc1cc(OC)cc(C(=O)N2CCN(C(=O)N3CCN(c4ccc5c(=O)c(C(=O)O)cn(C6CC6)c5c4)CC3)CC2)c1 | ≥ 128
25 | COc1ccc(C(=O)N2CCN(C(=O)N3CCN(c4ccc5c(=O)c(C(=O)O)cn(C6CC6)c5c4)CC3)CC2)cc1 | ≥ 128
26 | COc1ccccc1C(=O)N1CCN(C(=O)N2CCN(c3ccc4c(=O)c(C(=O)O)cn(C5CC5)c4c3)CC2)CC1 | ≥ 128
27 | COc1cccc(C(=O)N2CCN(C(=O)N3CCN(c4ccc5c(=O)c(C(=O)O)cn(C6CC6)c5c4)CC3)CC2)c1 | ≥ 128
28 | COc1ccc(C(=O)N2CCN(C(=O)N3CCN(c4ccc5c(=O)c(C(=O)O)cn(C6CC6)c5c4)CC3)CC2)c(OC)c1 | ≥ 128

Test system: Staphylococcus aureus
Assay: Antibacterial activity against methicillin-resistant Staphylococcus aureus isolates by two fold dilution method
Assay type: functional

Row | SMILES | MIC [µg/mL]
29 | CCn1cc(C(=O)O)c(=O)c2cc(F)c(N3CCN(C)CC3)cc21 [PEFLOXACIN] | 1.56 (≈ 4.68 µM)
30 | CC1CN(c2c(F)cc3c(=O)c(C(=O)O)c4scc5n4c3c2N(C)C5)CCN1C (stereo not drawn) | 0.05 (≈ 0.12 µM)
31 | CCNCC1CCN(c2c(F)cc3c(=O)c(C(=O)O)c4scc5n4c3c2NC5)C1 (stereo not drawn) | 0.05 (≈ 0.12 µM)
32 | C[C@H]1COc2c(N3CCN(C)CC3)c(F)cc3c(=O)c(C(=O)O)cn1c23.C[C@H]1COc2c(N3CCN(C)CC3)c(F)cc3c(=O)c(C(=O)O)cn1c23.O [LEVOFLOXACIN] | 1.56
33 | O=C(O)c1c(=O)c2cc(F)c(N3CCOCC3)c3c2n2c(csc12)CN3 | 0.05 (≈ 0.133 µM)
34 | CC1COc2c(N3CCN(C)CC3)c(F)cc3c(=O)c(C(=O)O)cn1c23 (stereo not drawn) [OFLOXACIN] | 1.56 (≈ 4.32 µM)

Test system: Staphylococcus aureus
Assay: Antimicrobial activity against methicillin-resistant Staphylococcus aureus assessed as inhibition of microbial growth
Assay type: functional

Row | SMILES | MIC [µg/mL]
35 | O=C(O)c1c[nH]c2cc(N3CCN([C@@H]4O[C@H](CO)[C@H](O)[C@H](O)[C@H]4O)CC3)c(F)cc2c1=O | 0.5
36 | O=C(O)c1cn(C2CC2)c2c(c1=O)C=C(F)C1N=NC(c3ccc(Br)cc3)=CN21 (stereo not drawn) | 0.25
37 | COc1ccc(C(=O)N2CCN(C(=O)N3CCN(c4ccc5c(=O)c(C(=O)O)cn(C6CC6)c5c4)CC3)CC2)cc1OC | < 0.016
38 | COc1cc(OC)cc(C(=O)N2CCN(C(=O)N3CCN(c4ccc5c(=O)c(C(=O)O)cn(C6CC6)c5c4)CC3)CC2)c1 | < 0.016
39 | Nc1cccc(C2=CN3c4c(c(=O)c(C(=O)O)cn4C4CC4)C=C(F)C3N=N2)c1 (stereo not drawn) | 0.25
40 | COc1ccc(C(=O)N2CCN(C(=O)N3CCN(c4ccc5c(=O)c(C(=O)O)cn(C6CC6)c5c4)CC3)CC2)cc1 | < 0.016
41 | COc1ccccc1C1=CN2c3c(c(=O)c(C(=O)O)cn3C3CC3)C=C(F)C2N=N1 (stereo not drawn) | 0.25
42 | O=C(O)c1cn(C2CC2)c2c(c1=O)C=C(F)C1N=NC(c3ccc([N+](=O)[O-])cc3)=CN21 (stereo not drawn) | 0.25
43 | O=C(O)c1cn(C2CC2)c2c(c1=O)C=C(F)C1N=NC(c3cccc(Cl)c3)=CN21 (stereo not drawn) | 0.25
44 | Nc1ccc(C2=CN3c4c(c(=O)c(C(=O)O)cn4C4CC4)C=C(F)C3N=N2)cc1 (stereo not drawn) | 0.25
45 | COc1ccccc1C(=O)N1CCN(C(=O)N2CCN(c3ccc4c(=O)c(C(=O)O)cn(C5CC5)c4c3)CC2)CC1 | < 0.016
46 | COc1cccc(C(=O)N2CCN(C(=O)N3CCN(c4ccc5c(=O)c(C(=O)O)cn(C6CC6)c5c4)CC3)CC2)c1 | < 0.016
47 | COc1ccc(C(=O)N2CCN(C(=O)N3CCN(c4ccc5c(=O)c(C(=O)O)cn(C6CC6)c5c4)CC3)CC2)c(OC)c1 | < 0.016

Test system: Staphylococcus aureus
Assay: Antimicrobial activity against methicillin-resistant Staphylococcus aureus isolates by agar dilution method
Assay type: functional

Row | SMILES | MIC [µg/mL]
48 | C[C@H]1COc2c(N3CCN(C)CC3)c(F)cc3c(=O)c(C(=O)O)cn1c23.C[C@H]1COc2c(N3CCN(C)CC3)c(F)cc3c(=O)c(C(=O)O)cn1c23.O [LEVOFLOXACIN] | 0.5

Test system: Staphylococcus aureus
Assay: Antimicrobial activity against methicillin-resistant Staphylococcus aureus
Assay type: functional, organism-based

Row | SMILES | MIC [µg/mL]
49 | COc1c(N2CCNC(C)C2)c(F)cc2c(=O)c(C(=O)O)cn(C3CC3)c12 (stereo not drawn) [GATIFLOXACIN] | 16 (≈ 42.6 µM)
50 | C[C@H]1COc2c(N3CCN(C)CC3)c(F)cc3c(=O)c(C(=O)O)cn1c23.C[C@H]1COc2c(N3CCN(C)CC3)c(F)cc3c(=O)c(C(=O)O)cn1c23.O [LEVOFLOXACIN] | 16

Test system: Staphylococcus aureus
Assay: Antibacterial activity against methicillin-resistant Staphylococcus aureus assessed as inhibition of microbial growth
Assay type: functional

Row | SMILES | MIC [µg/mL]
51 | COc1c(N2CCNC(C)C2)c(F)cc2c(=O)c(C(=O)O)cn(C3CC3)c12 (stereo not drawn) [GATIFLOXACIN] | 0.06

Test system: Staphylococcus aureus
Assay: Antimicrobial activity against methicillin-resistant Staphylococcus aureus incubated for 18 hrs by Alamar blue staining based analysis
Assay type: functional

Row | SMILES | MIC [µg/mL]
52 | CO/N=C1\CN(c2nc3c(cc2F)c(=O)c(C(=O)O)cn3C2CC2)CC1CN (stereo not drawn) [GEMIFLOXACIN] | 4 (≈ 10.3 µM)
53 | C[C@H]1COc2c(N3CCN(C)CC3)c(F)cc3c(=O)c(C(=O)O)cn1c23.C[C@H]1COc2c(N3CCN(C)CC3)c(F)cc3c(=O)c(C(=O)O)cn1c23.O [LEVOFLOXACIN] | 32
